{
  "source": "patent US7812042B2",
  "about": "“Pharmaceutical compositions and therapeutic applications for the use of a novel vitamin B12 derivative, N-acetyl-L-cysteinylcobalamin” (priority 2006, dated 2010)",
  "key": {"SK-HEP-1 cells [1]": {"test_system": "SK-HEP-1 cells", "experiment": "Protection of endothelial cells from homocysteine-induced cell death (MTS assay, absorbance at 490 nm; includes comparison of NACCbl, NAC, cyanocobalamin+NAC, free thiols, other cobalamins, folate)", "format": "cell-based, Human", "settings": "for Absorbance at 490 nm (n = 6): replicates Y1-Y6", "procedure": "The effect of a constant concentration of NACCbl and GSCbl to protect cells against variable concentrations of homocysteine was assessed. […] Cell viability was determined by MTS® assay. Data shown in FIG. 4 are representative of means ±SE of 6 independent samples. FIG. 4 illustrates that NACCbl (▪) and GSCbl (▴) protect endothelial cells from the effect of homocysteine. […] Cell viability was determined by MTS® assay. […] There was a decrease in protection as homocysteine concentration increased, but there was still ˜60% survival at 50 μM homocysteine.\nThe data was normalized (log 2 and log 10) as shown in FIGS. 16 and 17 and Tables 16 and 17, respectively, below."}, "SK-HEP-1 cells [2]": {"test_system": "SK-HEP-1 cells", "experiment": "Protection from apoptosis induced by homocysteine (Caspase-3 activity)", "format": "cell-based, Human", "settings": "30 μM pre-treatment two hours, then 30 μM homocysteine two hours", "procedure": "Caspase 3 is activated when cells undergo apoptosis. Caspase-3 assay is a standard for apoptosis assay. Homocysteine is a known inducer of apoptosis. Cells were cultured in 96-well plates for 24 hours and then treated with reagents under test conditions. Cytotoxic agents, H2O2 and etoposide were added to negative control wells. The assay was performed according to the manufacturer's protocol, as follows: Cells were re-suspended in 100 μl of clear media and 50 μl of Caspase-3 substrate solution was immediately added to each test well. […] Cell viability was determined by MTS® assay. […] Cell viability was determined by MTS® assay."}, "U937 (monocytes)": {"test_system": "U937 (monocytes)", "experiment": "Survival of U937 cells at variable concentration of Hcy", "format": "cell-based", "settings": "NACCbl 30 μM, NAC 75 μM, CNCbl 15 μM, folate 30 μM; especially at higher homocysteine concentrations", "procedure": "(§1) Additional cell studies were conducted using Jurkat (T-cells) and U937 (monocyte) cell lines. These experiments confirmed that other cell types are killed by homocysteine, although these cell lines are not as sensitive as the SK-HEP-1 cell line discussed in the experiments above and are thus more resistant to homocysteine. Cells were exposed to NACCbl 30 μM, NAC 75 μM, CNCbl 15 μM, and folate 30 μM. […] In these Figures, the monocytes are N=6 and concentrations are as follows: NACCbl 30 μM, NAC 75 μM, CNCbl 15 μM, Folate 30 μM"}, "Hsp32": {"test_system": "Hsp32", "experiment": "Hsp32 gene expression in SK-HEP-1 cells (RT-PCR, densitometry)", "format": "cell-based, Human", "settings": "homocysteine 30 μM, folate 30 μM (2 hr), Sn(IX) protoporphyrin 25 μM, quercitin 15 μM", "protocol": "Cells were plated into 6-, 12-, or 24-well cell culture clusters, at 2×10^3, 2×10^5, or 1×10^5 cells per well and incubated until 90% confluent. Treatments were applied as above.\nFollowing incubation, cells were subjected to mRNA extraction followed by cDNA synthesis for each sample under test. Polymerase chain reaction cDNA templates were prepared for simplex PCR protocol. PCR products were then visualized using a UV Transilluminator and images captured using a Kodak ID gel imaging system. Densitometry and statistical analysis was then performed on each gene expression band image using PSP® v 10.0 running under Windows XP®.\nmRNA extraction was performed using the Quickprep micro mRNA Purification Kit. Following incubation of cells post-treatment, the media was removed from the cells, adherent cells were re-suspended in 0.4 ml extraction buffer and 0.8 ml elution buffer at 65° C. was added.\nA reaction mixture was prepared in individual microcentrifuge tubes containing 2 cDNA synthesis beads, 32 μl of the mRNA solution and 1 μl of pd(N)6. This mixture was incubated at 37° C. in a water bath for 60 minutes. After incubation, 27 μl of RNase-free DEPC treated water was added to each tube to make a total volume 60 μl. cDNA samples were prepared in duplicate. Sample 1 was used immediately in RT-PCR protocol. Sample 2 was prepared for qPCR protocol by the addition of 150 μl of 95% ice-cold ethanol and stored at −20° C.\nMicrocentrifuge tubes from puReTaq™Ready-To-Go™ PCR Beads containing one PCR bead were labeled for each sample required. Added to the PCR bead were 17 μl of RNase-free DEPC treated water, 1 μl sense primer, 1 μl anti-sense primer and 5 μl of the cDNA solution. RT-PCR conditions were as follows: Hsp70 and β-actin, pre-treatment step, 94° C. for 1 minute, followed by denaturing at 92° C. for 1 minute, annealing at 60° C. for 1 minute and extension at 72° C. for 1 minute. Total cycles, 30, post-treatment was then carried out at 72° C. for 10 minutes. For Hsp32, pre-treatment step, 95° C. for 2 minutes, followed by denaturing at 94° C. for 30 seconds, annealing at 58° C. for 1 minute and extension at 72° C. for 1 minute. Total cycles 45, post treatment was then carried out at 72° C. for 10 minutes. Following RT-PCR, samples were stored at −20° C.\nAmplification products were separated on a 1.8% agarose gel (m/v) in TAE buffer. The size of the PCR products was determined by comparison to DNA fragments of a well-defined size; therefore, 5 μl of the DNA Ladder was carefully pipetted into the first well of the gel. Successive 10 μl of each PCR sample was then pipetted into subsequent wells on the agarose gel. The gel was connected to the Power Pack and run at 100V for 30 minutes.\nGels were visualised on a UV Transilluminator. Photographs were stored using a Kodak Digital camera system fitted with a UV filter set connected to a PC. Images were then transferred to the Kodak ID gel imaging system. Densitometry was performed on each gene expression band using PSP™ v10 running under Windows XP®.\nExperiments were conducted using Hsp32 and Hsp 70 gene expression as the basis for study. […] (all treatments for 2 hours)."}, "Jurkat (T-cells)": {"test_system": "Jurkat (T-cells)", "experiment": "Survival of Jurkat cells at variable concentration of Hcy", "format": "cell-based", "settings": "NACCbl 30 μM, NAC 75 μM, CNCbl 15 μM, folate 30 μM; especially at higher homocysteine concentrations", "procedure": "as §1"}, "SK-HEP-1 cells [3]": {"test_system": "SK-HEP-1 cells", "experiment": "Protection of endothelial cells from H2O2-induced cell death (MTS assay)", "format": "cell-based, Human", "settings": "25 μM H2O2 24 hours", "procedure": "The effect of increasing concentrations of NACCbl and GSCbl to protect endothelial cells from the effect of H2O2 was assessed. […] Cell viability was determined by MTS® assay. […] Cell viability was determined by MTS® assay. […] Cell viability was determined by MTS® assay."}},
  "note": "Where “and” joins values, the source holds several entries; their conditions need not be identical. Equal entries are not always repeated.",
  "data": [
    {"smiles": "CC(=O)NC(C[S-])C(=O)O.CC1=C2N=C(C=C3N=C(C(C)=C4[N-]C(C(CC(N)=O)C4(C)CCC(=O)NCC(C)OP(=O)([O-])OC4C(CO)OC(n5cnc6cc(C)c(C)cc65)C4O)C4(C)N=C1C(CCC(N)=O)C4(C)CC(N)=O)C(CCC(N)=O)C3(C)C)C(CCC(N)=O)C2(C)CC(N)=O.[Co+3]", "note": "[NACCbl, N-acetyl-L-cysteinylcobalamin]", "values": [
      {"measurement": "survival", "setting": "SK-HEP-1 cells [1]; 30 μM cobalamin pre-incubation two hours, then 50 μM homocysteine two hours", "value": "~60", "unit": "%"},
      {"measurement": "pre-incubation concentration that protected cells from homocysteine-induced cell death", "setting": "SK-HEP-1 cells [1]; 2 hours pre-incubation, then 30 μM homocysteine 24 hours", "value": "≥ 2.0", "unit": "µM"},
      {"measurement": "Absorbance at 490 nm, Mean (n = 6)", "setting": "SK-HEP-1 cells [1]; Conc. Hcy 0.000, NACCbl 30 μM, NAC 75 μM", "value": 2.761},
      {"measurement": "Absorbance at 490 nm, Mean (n = 6)", "setting": "SK-HEP-1 cells [1]; Conc. Hcy 1.780 (μM), NACCbl 30 μM, NAC 75 μM", "value": 2.673},
      {"measurement": "Absorbance at 490 nm, Mean (n = 6)", "setting": "SK-HEP-1 cells [1]; Conc. Hcy 3.125 (μM), NACCbl 30 μM, NAC 75 μM", "value": 2.404},
      {"measurement": "Absorbance at 490 nm, Mean (n = 6)", "setting": "SK-HEP-1 cells [1]; Conc. Hcy 6.250 (μM), NACCbl 30 μM, NAC 75 μM", "value": 2.273},
      {"measurement": "Absorbance at 490 nm, Mean (n = 6)", "setting": "SK-HEP-1 cells [1]; Conc. Hcy 12.500 (μM), NACCbl 30 μM, NAC 75 μM", "value": 2.142},
      {"measurement": "Absorbance at 490 nm, Mean (n = 6)", "setting": "SK-HEP-1 cells [1]; Conc. Hcy 25.000 (μM), NACCbl 30 μM, NAC 75 μM", "value": 1.954},
      {"measurement": "Absorbance at 490 nm, Mean (n = 6)", "setting": "SK-HEP-1 cells [1]; Conc. Hcy 50.000 (μM), NACCbl 30 μM, NAC 75 μM", "value": 1.786},
      {"measurement": "Absorbance at 490 nm, Mean (n = 6)", "setting": "SK-HEP-1 cells [1]; Conc. Hcy 100.000 (μM), NACCbl 30 μM, NAC 75 μM", "value": 1.685},
      {"measurement": "Absorbance at 490 nm, Mean (n = 6)", "setting": "SK-HEP-1 cells [1]; Conc. Hcy 200.000 (μM), NACCbl 30 μM, NAC 75 μM", "value": 1.393},
      {"measurement": "Absorbance at 490 nm (n = 6)", "setting": "SK-HEP-1 cells [1]; Conc. of Hcy 0.000, NACCbl 30 μM, NAC 75 μM", "value": "2.885 and 2.698 and 2.821 and 2.771 and 2.691 and 2.700"},
      {"measurement": "Absorbance at 490 nm (n = 6)", "setting": "SK-HEP-1 cells [1]; Conc. of Hcy 1.780, NACCbl 30 μM, NAC 75 μM", "value": "2.647 and 2.551 and 2.789 and 2.890 and 2.549 and 2.611"},
      {"measurement": "Absorbance at 490 nm (n = 6)", "setting": "SK-HEP-1 cells [1]; Conc. of Hcy 3.125, NACCbl 30 μM", "value": "2.453 and 2.338 and 2.360 and 2.317 and 2.418 and 2.535"},
      {"measurement": "Absorbance at 490 nm (n = 6)", "setting": "SK-HEP-1 cells [1]; Conc. of Hcy 6.250, NACCbl 30 μM, NAC 75 μM", "value": "2.410 and 2.400 and 2.322 and 2.201 and 2.115 and 2.187"},
      {"measurement": "Absorbance at 490 nm (n = 6)", "setting": "SK-HEP-1 cells [1]; Conc. of Hcy 12.500, NACCbl 30 μM, NAC 75 μM", "value": "2.210 and 2.110 and 2.045 and 2.065 and 2.101 and 2.324"},
      {"measurement": "Absorbance at 490 nm (n = 6)", "setting": "SK-HEP-1 cells [1]; Conc. of Hcy 25.000, NACCbl 30 μM, NAC 75 μM", "value": "2.100 and 2.190 and 1.879 and 1.937 and 1.779 and 1.837"},
      {"measurement": "Absorbance at 490 nm (n = 6)", "setting": "SK-HEP-1 cells [1]; Conc. of Hcy 50.000, NACCbl 30 μM, NAC 75 μM", "value": "1.678 and 1.832 and 1.881 and 1.730 and 1.740 and 1.855"},
      {"measurement": "Absorbance at 490 nm (n = 6)", "setting": "SK-HEP-1 cells [1]; Conc. of Hcy 100.000, NACCbl 30 μM, NAC 75 μM", "value": "1.678 and 1.592 and 1.694 and 1.773 and 1.732 and 1.639"},
      {"measurement": "Absorbance at 490 nm (n = 6)", "setting": "SK-HEP-1 cells [1]; Conc. of Hcy 200.000, NACCbl 30 μM, NAC 75 μM", "value": "1.378 and 1.167 and 1.330 and 1.456 and 1.491 and 1.537"},
      {"measurement": "protection against homocysteine-induced damage compared with free thiols", "setting": "SK-HEP-1 cells [1]; Hcy 30 μM, NAC 45, GSH 100, NACCbl 12.5, GSCbl 15 μM, with or without folate 25 μM", "value": "superior to the free thiols"},
      {"measurement": "protection compared with GSCbl (p<0.001)", "setting": "SK-HEP-1 cells [1]; concentrations below 12.5 μM, 30 μM homocysteine 24 hours", "value": "significantly greater than that provided by GSCbl"},
      {"measurement": "prevention of cell death compared with NAC and cyanocobalamin+NAC", "setting": "SK-HEP-1 cells [1]; variable Hcy concentration, NACCbl 30 μM", "value": "superior to either NAC (75 μM) alone or in combination with CNCbl"},
      {"measurement": "survival", "setting": "SK-HEP-1 cells [1]; ≧12.5 μM NACCbl 2 hours, then 30 μM homocysteine 24 hours", "value": 80, "unit": "%"},
      {"measurement": "protection against apoptosis induced by homocysteine", "setting": "SK-HEP-1 cells [2]", "value": "total protection"},
      {"measurement": "protection of U937 cells from death by homocysteine, comparison", "setting": "U937 (monocytes)", "value": "more effective at protecting these cells from death than NAC, CN Cbl or folate"},
      {"measurement": "effect on Hsp32 gene expression", "setting": "Hsp32", "value": "induce Hsp32"},
      {"measurement": "protection of Jurkat cells from death by homocysteine, comparison", "setting": "Jurkat (T-cells)", "value": "more effective at protecting these cells from death than NAC, CN Cbl or folate"},
      {"measurement": "protection by NACCbl compared with GSCbl", "setting": "SK-HEP-1 cells [3]", "value": "no difference"}
    ]}
  ]
}
